Test results: US7262340B2, “Gibberellin 2-oxidase” (Rothamsted Research Limited, priority 1998, dated 2007)

Tests used:
AtGA2ox3 = molecular target: T1, AtGA2ox3 (Arabidopsis thaliana, UniProt O64692); test: Incubation of recombinant GA 2-oxidase AtGA2ox3 (E. coli lysate) with 14C-labelled GA substrates; assay type: biochemical; details: for 2β-Hydroxy GA product / GA-catabolite Product: E. coli cell lysate, 14C-labelled GA substrate and cofactors, 2.5 h, HPLC-radiomonitoring
T1 construct: made in house; host or cells: E. coli (crude cell lysate)
T1 sequence (O64692 1-335): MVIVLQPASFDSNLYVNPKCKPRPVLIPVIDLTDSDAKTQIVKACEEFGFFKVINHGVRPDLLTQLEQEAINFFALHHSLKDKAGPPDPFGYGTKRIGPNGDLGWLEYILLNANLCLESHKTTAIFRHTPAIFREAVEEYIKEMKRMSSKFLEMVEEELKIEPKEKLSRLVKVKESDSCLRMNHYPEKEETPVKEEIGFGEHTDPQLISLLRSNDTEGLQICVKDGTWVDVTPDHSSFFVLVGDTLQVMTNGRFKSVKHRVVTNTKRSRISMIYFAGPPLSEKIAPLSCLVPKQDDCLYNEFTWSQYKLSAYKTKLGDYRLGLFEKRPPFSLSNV
Protocol: (§1) GA 2β-hydroxylase activity was determined by measuring the release of 3H2O from a 2β tritiated GA substrate, as described by Smith and MacMillan (Smith, V. A., and MacMillan, J. in J. Plant Growth Regulation 2 251-264 (1984)). The bacterial lysate (90 μl) was incubated with [1,2-^3H2]GA4 or [2,3-^3H2]GA9 (ca. 50000 dpm), in the presence of 4 mM 2-oxoglutarate, 0.5 mM Fe(II)SO4, 4 MM ascorbate, 4 mM DTT, 1 mg/ml catalase, 2 mg/ml BSA, in a final reaction volume of 100 μl. The mixture was incubated at 30° C. for 60 min. The tritiated GAs were removed by the addition of 1 ml of activated charcoal (5% w/v) and subsequent centrifugation for 5 min in a microfuge. Aliquots (0.5 ml) of the supernatant were mixed with 2 ml scintillation fluid and the radioactivity determined by scintillation counting.
(§2) In order to confirm the function of the cDNA expression products, bacterial lysate was incubated with [17-^14C]GAs in the presence of cofactors, as described above. After the incubation, acetic acid (10 μl) and water at pH 3 (140 μl) were added, and the mixture was centrifuged at 3,000 rpm for 10 min. The supernatant was analysed by HPLC with on-line radiomonitoring and products identified by GC-MS, as described previously (MacMillan et al Plant Physiol. 113 1369-1377 (1997)).
(§3) The catalytic properties of the recombinant proteins obtained by expressing the cDNAs from P. coccineus (PcGA2ox1) and A. thaliana (AtGA2ox1, AtGA2ox2 and AtGa2ox3) in E. coli were examined by incubating in the presence of dioxygenase cofactors with a range of ^14C-labelled GA substrates, consisting of the C19-GAs GA1, GA4, GA9 and GA20, and the C20-GAs, GA12 and GA15. This last compound was incubated in both its closed and open lactone forms. […] The mass spectnum of the product from GA15 is consistent with it being 2β-hydroxyGA15, although, because the authentic compound is not available for comparison, the identity of this product is tentative.
(§4) Values are % yield by HPLC-radiomonitoring of products after incubation of cell lysates from E. coli expressing the cDNA with ^14C-labelled GA substrate and cofactors for 2.5 h. Products and substrate were separated by HPLC and products identified by GC-MS. Where combined yield of products <100%, the remainder is unconverted substrate.

[1] = test system: severely dwarfed 35S-PcGA2ox1 line; test: Metabolism of C19-GAs in a severely dwarfed 35S-PcGA2ox1 line compared with wild-type plants (HPLC); assay type: in vivo, Arabidopsis; details: severely dwarfed line versus wild-type, on the basis of HPLC
From the text: Metabolism of C19-Gas was compared in a severely dwarfed […] line with that in wild-type plants. […] Therefore, this GA can be used, when required, to reverse the GA-deficiency resulting from overexpressing GA 2-oxidase genes.

PcGA2ox1 = molecular target: T2, PcGA2ox1 (Phaseolus coccineus, UniProt Q9XG83); test: Incubation of recombinant GA 2-oxidase PcGA2ox1 (E. coli lysate) with 14C-labelled GA substrates; assay type: biochemical; details: for 2β-Hydroxy GA product / GA-catabolite Product: E. coli cell lysate, 14C-labelled GA substrate and cofactors, 2.5 h, HPLC-radiomonitoring; for conversion of C20-GA substrate: 14C-labelled substrate, dioxygenase cofactors
T2 construct: unnamed vector-encoded fusion partner (phagemid expression); made in house; host or cells: E. coli (crude cell lysate)
T2 sequence (Q9XG83 1-331): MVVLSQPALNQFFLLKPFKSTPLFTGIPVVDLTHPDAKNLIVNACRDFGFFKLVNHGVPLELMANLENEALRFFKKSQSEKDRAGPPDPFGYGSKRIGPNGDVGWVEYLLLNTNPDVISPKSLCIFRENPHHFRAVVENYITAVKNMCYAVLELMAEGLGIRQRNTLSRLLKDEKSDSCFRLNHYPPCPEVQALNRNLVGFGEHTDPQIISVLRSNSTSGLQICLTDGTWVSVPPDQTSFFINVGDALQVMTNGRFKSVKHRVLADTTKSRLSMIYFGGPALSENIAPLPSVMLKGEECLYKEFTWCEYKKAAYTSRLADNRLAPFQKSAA
Protocol: as §1, §2, §3, §4

AtGA2ox2 = molecular target: T3, AtGA2ox2 (Arabidopsis thaliana, UniProt Q9XFR9); test: Incubation of recombinant GA 2-oxidase AtGA2ox2 (E. coli lysate) with 14C-labelled GA substrates; assay type: biochemical; details: for 2β-Hydroxy GA product / GA-catabolite Product: E. coli cell lysate, 14C-labelled GA substrate and cofactors, 2.5 h, HPLC-radiomonitoring; for conversion of C20-GA substrate: 14C-labelled substrate, dioxygenase cofactors
T3 construct: made in house; host or cells: E. coli (crude cell lysate)
T3 sequence (Q9XFR9 1-341): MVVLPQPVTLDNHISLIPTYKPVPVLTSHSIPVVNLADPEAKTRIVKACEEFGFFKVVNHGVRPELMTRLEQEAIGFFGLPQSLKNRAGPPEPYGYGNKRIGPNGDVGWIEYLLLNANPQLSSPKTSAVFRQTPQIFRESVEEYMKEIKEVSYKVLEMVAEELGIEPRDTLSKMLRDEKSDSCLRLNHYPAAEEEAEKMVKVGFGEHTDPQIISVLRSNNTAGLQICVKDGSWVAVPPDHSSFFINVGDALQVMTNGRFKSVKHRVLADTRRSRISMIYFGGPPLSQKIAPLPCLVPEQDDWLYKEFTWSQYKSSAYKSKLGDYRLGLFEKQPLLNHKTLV
Protocol: as §1, §2, §3, §4

AtGA2ox1 = molecular target: T4, AtGA2ox1 (Arabidopsis thaliana, UniProt Q8LEA2); test: Incubation of recombinant GA 2-oxidase AtGA2ox1 (E. coli lysate) with 14C-labelled GA substrates; assay type: biochemical; details: for 2β-Hydroxy GA product: E. coli cell lysate, 14C-labelled GA substrate and cofactors, 2.5 h, HPLC-radiomonitoring
T4 construct: made in house; host or cells: E. coli (crude cell lysate)
T4 sequence (Q8LEA2 1-329): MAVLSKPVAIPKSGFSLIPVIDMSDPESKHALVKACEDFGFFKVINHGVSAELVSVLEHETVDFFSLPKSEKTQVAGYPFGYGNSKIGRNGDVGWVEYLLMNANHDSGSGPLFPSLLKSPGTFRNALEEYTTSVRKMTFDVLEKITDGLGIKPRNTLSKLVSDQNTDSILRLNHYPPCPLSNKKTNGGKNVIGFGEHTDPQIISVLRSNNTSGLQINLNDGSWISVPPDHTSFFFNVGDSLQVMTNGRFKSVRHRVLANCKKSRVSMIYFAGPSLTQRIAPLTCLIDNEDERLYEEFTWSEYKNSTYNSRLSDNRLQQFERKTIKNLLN
Protocol: as §1, §2, §3, §4

[2] = test system: T3 and T24 (AtGA2ox1 and AtGA2ox2) transcript; test: Northern blot of GA 2-oxidase genes T3 and T24 after GA3 treatment of GA-deficient mutant; assay type: in vivo, Arabidopsis; details: immature flower buds and pedicels of GA-deficient mutant gal-2, after treatment
GA 2-oxidases = test: Substrate test with recombinant enzyme (GA 2-oxidases, enzyme not specified); assay type: biochemical
[3] = test system: 35S-PcGA2ox1 transgenic Arabidopsis lines; test: GA3 treatment of Arabidopsis transformants overexpressing P. coccineus GA 2-oxidase; assay type: in vivo
Protocol: The transformation of Arabidopsis plants with P. coccineus GA 2-oxidase cDNA under the control of the CaMV ^35S promoter yielded the following results.
Five Arabidopsis lines that are homozygous for the 35S-PcGA2ox1 transgene were obtained. […] No flower buds were obtained when plants were grown in short photoperiods.

[4] = test system: 2-oxoglutarate-dependent dioxygenases; details: pea seeds; cited from earlier work
[5] = 14C-labelled substrate, dioxygenase cofactors

| Molecule | 2β-Hydroxy GA product (AtGA2ox3) | conversion to 2-oxidised products / metabolism by the dwarf line [1] | 2β-Hydroxy GA product (PcGA2ox1) | 2β-Hydroxy GA product (AtGA2ox2) | 2β-Hydroxy GA product (AtGA2ox1) | conversion of C20-GA substrate (PcGA2ox1) | conversion of C20-GA substrate (AtGA2ox2) | also measured |
| --- | --- | --- | --- | --- | --- | --- | --- | --- |
| C=C1C[C@]23C[C@@]1(O)CC[C@H]2[C@@]12CC[C@H](O)[C@@](C)(C(=O)O1)[C@H]2[C@@H]3C(=O)O [GA1] | 100 % yield | to a much greater extent than did the wild-type | 100 % yield | 100 % yield | 41 % yield | – | – | GA-catabolite Product (AtGA2ox3): Trace |
| C=C1C[C@]23C[C@@]1(O)CC[C@H]2[C@@]12C=C[C@H](O)[C@@](C)(C(=O)O1)[C@H]2[C@@H]3C(=O)O [GA3] | – | did not metabolise | – | – | – | – | – | transcript abundance for both T3 and T24 [2]: increased; substrate for the GA 2-oxidases (GA 2-oxidases): not a substrate; effect on bolting and flowering of the transgenic lines ([3]; 10 μM GA3, homozygous 35S-PcGA2ox1 lines): enabled them to bolt and produce normal flowers that set viable seed; response of dwarf transformants to treatment ([3]; Arabidopsis transformants, CaMV 35S promoter, concentration not given): increased stem elongation and normal flower development |
| C=C1C[C@]23C[C@H]1CC[C@H]2[C@@]12CC[C@H](O)[C@@](C)(C(=O)O1)[C@H]2[C@@H]3C(=O)O [GA4] | 86 % yield | to a much greater extent than did the wild-type | 83 % yield | 77 % yield | 25 % yield | – | – | GA-catabolite Product (AtGA2ox3): 14 % yield; GA-catabolite Product (PcGA2ox1): 17 % yield; GA-catabolite Product (AtGA2ox2): 23 % yield |
| C=C1C[C@]23C[C@H]1CC[C@H]2[C@@]12CCC[C@@](C)(C(=O)O1)[C@H]2[C@@H]3C(=O)O [GA9] | 100 % yield | to a much greater extent than did the wild-type | 87 % yield | – | 91 % yield | – | – | activity for 2β-hydroxylation of GA9, dependence on pH (AtGA2ox3; between pH 6.5 and 8): varied little; GA-catabolite Product (PcGA2ox1): 13 % yield; activity for 2β-hydroxylation of GA9, dependence on pH (PcGA2ox1; between pH 6.5 and 8): varied little; GA-catabolite Product (AtGA2ox2): 100 % yield; activity for 2β-hydroxylation of GA9, dependence on pH (AtGA2ox2; between pH 6.5 and 8): varied little; pH at which activity for 2β-hydroxylation of GA9 peaked (AtGA2ox1): 7; activity for 2β-hydroxylation of GA9 (AtGA2ox1; pH ≦5.9 and ≧8.1): no detectable activity |
| C=C1C[C@]23C[C@H]1CC[C@H]2[C@]1(C)CCC[C@@](C)(C(=O)O)[C@H]1[C@@H]3C(=O)O [GA12] | – | – | – | – | – | No conversion | No conversion | conversion of C20-GA substrate (AtGA2ox3; [5]): No conversion; conversion of C20-GA substrate (AtGA2ox1; [5]): No conversion |
| C=C1C[C@]23C[C@H]1CC[C@H]2[C@]1(CO)CCC[C@@](C)(C(=O)O)[C@H]1[C@@H]3C(=O)O [GA15 open lactone, 20-hydroxyGA12] | – | – | – | – | – | no conversion | converted to the same product by AtGAox2, but less efficiently than was the lactone form | – |
| C=C1C[C@]23C[C@H]1CC[C@H]2[C@@]12CCC[C@@](C)(C(=O)OC1)[C@H]2[C@@H]3C(=O)O [GA15] | – | – | – | – | – | converted to a single product | converted to a single product | – |
| C=C1C[C@]23C[C@@]1(O)CC[C@H]2[C@@]12CCC[C@@](C)(C(=O)O1)[C@H]2[C@@H]3C(=O)O [GA20] | 25 % yield | to a much greater extent than did the wild-type | 86 % yield | 100 % yield | 50 % yield | – | – | – |
| prohexadione-calcium | – | – | – | – | – | – | – | conversion of GA29 to GA29-catabolite [4]: inhibited |
